Tests used:
GPR84 knockout mice = assay: Same test as Test 2 (glucose tolerance, plasma insulin) using GPR84 knockout mice, data not shown; assay type: in vivo; conditions: effect lower than with wild-type mice
Text: However, the increasing effect was lower than with wild-type mice. […] It was inferred that the total insulin secretion was reduced compared with that of wild-type mice.

C57BL/6 male mice = assay: Glucose tolerance test in mice: plasma insulin concentration (ELISA); assay type: in vivo; conditions: 1000 mg/kg oral; for Plasma insulin concentration: glucose 2.5 g/kg 60 minutes after sample, blood 30 minutes after glucose, mean±standard error; for Effect on plasma insulin concentration (in words): wild-type mice, glucose tolerance test
Experimental: A glucose tolerance test was carried out by the following method to examine the effect by administration of various medium chain fatty acids (capric acid or lauric acid, both are a free body) to mice on plasma insulin secretion at that time. Note here that the above-mentioned medium chain fatty acid corresponds to a GPR84 agonist. Ten tablets of PBS (trade name “Phosphate Buffered Salts Tablets”, manufactured by Takara Bio Inc.) were dissolved in distilled water, and the total volume was adjusted to 1000 ml. To 10 ml of the prepared solution, 50 mg of carboxymethyl cellulose (trade name “Carboxymethyl cellulose sodium”, manufactured by FUJIFILM Wako Pure Chemical Industries, Ltd.) was added and mixed to obtain a carrier solution. To the obtained carrier solution, 2 g of capric acid (trade name “Decanoic acid”, manufactured by FUJIFILM Wako Pure Chemical Industries, Ltd.) was added, and mixed while heating to obtain a capric acid sample. A carrier solution was obtained in the same manner as in the (1-2) above. To the obtained carrier solution, 2 g of lauric acid (trade name “Dodecanoic acid”, manufactured by Sigma-Aldrich) was added and mixed while heating to obtain a lauric acid sample. Ten tablets of PBS (trade name “Phosphate Buffered Salts Tablets”, manufactured by Takara Bio Inc.) were dissolved in distilled water, and the total amount was adjusted to 1000 ml. To 10 ml of the prepared solution, 2.5 g of glucose (trade name “D(+)-glucose”, manufactured by FUJIFILM Wako Pure Chemical Industries, Ltd.) was added to obtain a glucose liquid. Based on the following method, any one of a control sample, a capric acid sample, and a lauric acid sample was administered to mice in each group, and then a glucose solution was further administered to carry out a glucose tolerance test. C57BL/6 male mice at 7- to 9-weeks old were purchased from Japan SLC, Inc. Each mouse (15 mice in total) was acclimatized for 1 week and then divided into three groups (a control sample administration group, a capric acid sample administration group, and a lauric acid sample administration group) so that the average body weight was uniform. […] Plasma was prepared from the obtained blood by a conventional method, and the plasma insulin concentration (pg/ml) was measured. The plasma insulin concentration was measured by ELISA using a commercially available kit (trade name “Revis (trademark) Insulin-Mouse (RTU)”, manufactured by Fujifilm Wako Shibayagi Co., Ltd.). In the data of FIG. 2 and Table 2, the measured value of the plasma insulin concentration was expressed as “mean±standard error”. Dunnet's test was used to test significant differences between trials, and significant differences were determined to exist when the risk rate was less than 5% (*p<0.05).

Row | SMILES | Effect on plasma insulin concentration (in words) (GPR84 knockout mice) | Plasma insulin concentration (C57BL/6 male mice) | Effect on plasma insulin concentration (in words) (C57BL/6 male mice)
1 | CCCCCCCCCC(=O)O [Capric acid, capric acid (n-decanoic acid)] | increased the plasma insulin concentration | 395.1 ± 26.1 * pg/ml | significantly increased plasma insulin concentrations
2 | CCCCCCCCCCCC(=O)O [Lauric acid, lauric acid] | increased the plasma insulin concentration | 702.8 ± 84.4 * pg/ml | significantly increased plasma insulin concentrations
